Test results reported in US20240150377A1, “MODULATORS OF CYSTIC FIBROSIS TRANSMEMBRANE CONDUCTANCE REGULATOR” (VERTEX PHARMACEUTICALS INCORPORATED, priority 2020, published 2024).
Where two headings read alike, the source gives them in different places.

How the values were obtained:
[1] = amide bond, 13-membered ring
CFTR [2] = target: T1, CFTR (Homo sapiens, UniProt P13569); assay: Membrane potential dye, Enteroid Assay B; format: cell-based; details: for EC50: read-out: Ent. B EC50; for Ent. B Max Activity: chloride transport as % of triple combination control (Enteroid Assay B)
T1 sequence (P13569 with tags, fused parts or gaps DEL508-508): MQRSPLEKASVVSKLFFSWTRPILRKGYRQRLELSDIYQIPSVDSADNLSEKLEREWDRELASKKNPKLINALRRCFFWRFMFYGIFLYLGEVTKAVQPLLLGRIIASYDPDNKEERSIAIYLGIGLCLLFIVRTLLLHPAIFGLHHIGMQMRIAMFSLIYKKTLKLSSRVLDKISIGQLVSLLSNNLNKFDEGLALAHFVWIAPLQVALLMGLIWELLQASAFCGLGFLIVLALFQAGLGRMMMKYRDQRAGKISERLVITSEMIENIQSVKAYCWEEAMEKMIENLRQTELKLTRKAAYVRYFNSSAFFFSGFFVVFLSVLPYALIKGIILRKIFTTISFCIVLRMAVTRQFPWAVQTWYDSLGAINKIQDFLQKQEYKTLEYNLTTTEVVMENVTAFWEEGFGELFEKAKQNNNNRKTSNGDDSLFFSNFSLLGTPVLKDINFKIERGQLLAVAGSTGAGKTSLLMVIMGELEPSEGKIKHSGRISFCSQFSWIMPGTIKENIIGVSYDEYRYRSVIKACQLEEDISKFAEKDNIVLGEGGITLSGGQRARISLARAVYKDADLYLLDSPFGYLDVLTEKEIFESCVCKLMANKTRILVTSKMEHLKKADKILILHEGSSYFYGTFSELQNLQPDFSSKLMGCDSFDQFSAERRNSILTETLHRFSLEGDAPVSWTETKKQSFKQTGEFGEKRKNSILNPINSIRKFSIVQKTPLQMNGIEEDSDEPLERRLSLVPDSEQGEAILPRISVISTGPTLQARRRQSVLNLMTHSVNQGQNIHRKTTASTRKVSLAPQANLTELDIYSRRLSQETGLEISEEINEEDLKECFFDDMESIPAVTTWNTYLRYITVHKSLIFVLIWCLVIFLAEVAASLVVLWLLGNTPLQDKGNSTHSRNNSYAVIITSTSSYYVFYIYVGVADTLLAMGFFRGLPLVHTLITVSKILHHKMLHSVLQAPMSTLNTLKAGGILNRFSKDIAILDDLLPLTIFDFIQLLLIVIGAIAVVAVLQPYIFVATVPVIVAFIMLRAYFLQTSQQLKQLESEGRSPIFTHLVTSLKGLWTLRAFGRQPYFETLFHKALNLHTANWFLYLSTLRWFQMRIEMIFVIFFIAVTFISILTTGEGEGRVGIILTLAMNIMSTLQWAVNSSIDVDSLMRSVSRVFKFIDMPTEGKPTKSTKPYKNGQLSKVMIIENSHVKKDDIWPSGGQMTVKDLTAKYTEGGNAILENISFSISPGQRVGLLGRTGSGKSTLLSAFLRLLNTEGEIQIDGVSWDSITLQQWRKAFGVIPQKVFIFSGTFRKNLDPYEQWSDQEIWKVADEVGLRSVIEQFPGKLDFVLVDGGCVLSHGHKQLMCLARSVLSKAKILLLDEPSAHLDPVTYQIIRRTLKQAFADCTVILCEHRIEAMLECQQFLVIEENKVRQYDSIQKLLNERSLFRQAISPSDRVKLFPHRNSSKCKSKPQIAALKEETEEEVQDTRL
Method in brief: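 Human intestinal enteroids were treated with compound in maintenance medium for 18-24 h at 37° C, then loaded with methyl oxonol membrane-potential dye (25 min, room temperature). Chloride transport was triggered in chloride-free buffer with 10 μM forskolin, 100 μM IBMX and 300 nM Compound III, fluorescence read 15 min; expressed as % of triple-combination control.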

CFTR [3] = target: T1, CFTR; assay: Membrane potential dye, Enteroid Assay A; format: cell-based; details: for Ent. A Max Activity: chloride transport as % of triple combination control (Enteroid Assay A); for EC50: human enteroid cells, 18-24 hours, acute 10 μM forskolin and 300 nM ivacaftor, read-out: Ent. A EC50
Method in brief: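 Human intestinal enteroids incubated 18-24 h at 37 °C with test compound, then loaded with 20 μM methyl oxonol (with CaCC inhibitors). Chloride transport triggered in chloride-free buffer with 10 μM forskolin, 100 μM IBMX, 300 nM Compound III; fluorescence read 15 min, expressed as % of a triple-combination corrector/potentiator control.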

[4] = Table 8, human enteroid cells, 18-24 hours, acute 10 μM forskolin and 300 nM ivacaftor

Cc1cccc(C)c1-c1cc2nc(n1)NS(=O)(=O)c1cccc(c1)C(=O)N(Cc1ccc(N3CCOCC3)cn1)[C@H](CC(C)(C)C)CO2 [Compound 48, (11R)-6-(2,6-Dimethylphenyl)-11-(2,2-dimethylpropyl)-12-[(5-morpholino-2-pyridyl)methyl]-2,2-dioxo-9-oxa-2λ^6-thia-3,5,12,19-tetrazatricyclo[12.3.1.14,8]nonadeca-1(18),4(19),5,7,14,16-hexaen-13-one]
ring closure, yield after HPLC ([1]; from Cc1cccc(C)c1-c1cc(OC[C@@H](CC(C)(C)C)NCc2ccc(N3CCOCC3)cn2)nc(NS(=O)(=O)c2cccc(C(=O)O)c2)n1, CDMT/NMM, DMF, 16.9 mM, 25.0 °C, 2.33 h, 2 steps): 22%
Ent. B Max Activity (%) (CFTR [2]; Table 9): +++ (+++ is >600%)
EC50 (CFTR [2]; Table 9): < 1 µM

Cc1cccc(C)c1-c1cc2nc(n1)NS(=O)(=O)c1cccc(n1)C(=O)N(Cc1ncccn1)[C@H](CC(C)(C)C)CO2 [Compound 75, (11R)-6-(2,6-dimethylphenyl)-11-(2,2-dimethylpropyl)-12-[(pyrimidin-2-yl)methyl]-9-oxa-2λ^6-thia-3,5,12,18,19-pentaazatricyclo[12.3.1.14,8]nonadeca-1(18),4(19),5,7,14,16-hexaene-2,2,13-trione]
ring closure, yield after HPLC ([1]; from Cc1cccc(C)c1-c1cc(OC[C@@H](CC(C)(C)C)NCc2ncccn2)nc(NS(=O)(=O)c2cccc(C(=O)O)n2)n1, HATU/DIEA, DMF, 30.5 mM, 25.0 °C, 0.5 h): 46%
Ent. B Max Activity (CFTR [2]; Table 8): +++ (+++ is >60%)
EC50 (CFTR [2]; [4]): < 1 µM

Cc1cccc(C)c1-c1cc2nc(n1)NS(=O)(=O)c1cccc(c1)C(=O)N(Cc1cn(C)nc1C(C)(C)C)[C@H](CC(C)C)CO2 [Compound 83, (11R)-12-[(3-tert-Butyl-1-methyl-pyrazol-4-yl)methyl]-6-(2,6-dimethylphenyl)-11-isobutyl-2,2-dioxo-9-oxa-2λ^6-thia-3,5,12,19-tetrazatricyclo[12.3.1.14,8]nonadeca-1(18),4(19),5,7,14,16-hexaen-13-one]
Ent. A Max Activity (CFTR [3]; Table 7): +++ (+++ is >60%)
EC50 (CFTR [3]; Table 7): < 1 µM
ring closure, yield after HPLC ([1]; from Cc1cccc(C)c1-c1cc(OC[C@@H](CC(C)C)NCc2cn(C)nc2C(C)(C)C)nc(NS(=O)(=O)c2cccc(C(=O)O)c2)n1, HATU/DIEA, DMF, 20.4 mM, 25.0 °C, 18.0 h): 32%

COCCCCN1C(=O)c2cccc(c2)S(=O)(=O)Nc2nc(cc(-c3c(C)cccc3C)n2)OC[C@H]1CC(C)C [Compound 84, (11R)-6-(2,6-dimethylphenyl)-11-isobutyl-12-(4-methoxybutyl)-2,2-dioxo-9-oxa-2λ^6-thia-3,5,12,19-tetrazatricyclo[12.3.1.14,8]nonadeca-1(18),4(19),5,7,14,16-hexaen-13-one]
Ent. A Max Activity (CFTR [3]; Table 7): +++ (+++ is >60%)
EC50 (CFTR [3]; Table 7): < 1 µM
ring closure, yield after HPLC ([1]; from COCCCCN[C@@H](COc1cc(-c2c(C)cccc2C)nc(NS(=O)(=O)c2cccc(C(=O)O)c2)n1)CC(C)C, NaOtBu then HATU, THF, 98.4 mM, 25.0 °C, 1.0 h, 2 steps): 9%
Ent. B Max Activity (CFTR [2]; Table 7): +++ (+++ is >60%)
EC50 (CFTR [2]; Table 7, human enteroid cells, 18-24 hours, acute 10 μM forskolin and 300 nM ivacaftor): < 1 µM

Cc1cccc(C)c1-c1cc2nc(n1)NS(=O)(=O)c1cccc(c1)C(=O)N(C)CC(c1ccc(C(C)(C)C)cn1)O2 (centres unmarked) [Compound 101, 10-(5-tert-butyl-2-pyridyl)-6-(2,6-dimethylphenyl)-12-methyl-2,2-dioxo-9-oxa-2λ^6-thia-3,5,12,19-tetrazatricyclo[12.3.1.14,8]nonadeca-1(18),4(19),5,7,14,16-hexaen-13-one]
Ent. A Max Activity (CFTR [3]; Table 6): +++ (+++ is >60%)
EC50 (CFTR [3]; Table 6): < 1 µM
ring closure, yield after HPLC ([1]; from CNCC(Oc1cc(-c2c(C)cccc2C)nc(NS(=O)(=O)c2cccc(C(=O)O)c2)n1)c1ccc(C(C)(C)C)cn1, HATU/DIEA, DMF, 10.5 mM, 25.0 °C, 0.083 h, 2 steps): 55%

Cc1cccc(C)c1-c1cc2nc(n1)NS(=O)(=O)c1cccc(c1)C(=O)N(Cc1ncccn1)[C@H](CC(C)(C)C)CO2 [Compound 113, (11R)-6-(2,6-Dimethylphenyl)-11-(2,2-dimethylpropyl)-12-[(pyrimidin-2-yl)methyl]-9-oxa-2λ^6-thia-3,5,12,19-tetraazatricyclo[12.3.1.14,8]nonadeca-1(17),4(19),5,7,14(18),15-hexaene-2,2,13-trione]
ring closure, yield after HPLC ([1]; from Cc1cccc(C)c1-c1cc(OC[C@@H](CC(C)(C)C)NCc2ncccn2)nc(NS(=O)(=O)c2cccc(C(=O)O)c2)n1, COMU/DIEA, DMF, 28.1 mM, 25.0 °C, 6.0 h): 33%
Ent. B Max Activity (CFTR [2]; Table 8): +++ (+++ is >60%)
EC50 (CFTR [2]; [4]): < 1 µM

Cc1cccc(C)c1-c1cc2nc(n1)NS(=O)(=O)c1cccc(c1)C(=O)N(Cc1cccnn1)[C@H](CC(C)(C)C)CO2 [Compound 135, (11R)-6-(2,6-dimethylphenyl)-11-(2,2-dimethylpropyl)-12-[(pyridazin-3-yl)methyl]-9-oxa-2λ^6-thia-3,5,12,19-tetraazatricyclo[12.3.1.14,8]nonadeca-1(18),4,6,8(19),14,16-hexaene-2,2,13-trione]
ring closure, yield after HPLC ([1]; from Cc1cccc(C)c1-c1cc(OC[C@@H](CC(C)(C)C)NCc2cccnn2)nc(NS(=O)(=O)c2cccc(C(=O)O)c2)n1, COMU/DIEA, DMF, 40.7 mM, 16.0 h): 22%
Ent. B Max Activity (CFTR [2]; Table 8): +++ (+++ is >60%)
EC50 (CFTR [2]; [4]): < 1 µM

Cc1cccc(C)c1-c1cc2nc(n1)NS(=O)(=O)c1cccc(c1)C(=O)N(Cc1cnc(N)nc1)[C@H](CC(C)(C)C)CO2 [Compound 136, (11R)-12-[(2-Aminopyrimidin-5-yl)methyl]-6-(2,6-dimethylphenyl)-11-(2,2-dimethylpropyl)-9-oxa-2λ^6-thia-3,5,12,19-tetraazatricyclo[12.3.1.14,8]nonadeca-1(18),4,6,8(19),14,16-hexaene-2,2,13-trione]
ring closure, yield after HPLC ([1]; from Cc1cccc(C)c1-c1cc(OC[C@@H](CC(C)(C)C)NCc2cnc(N)nc2)nc(NS(=O)(=O)c2cccc(C(=O)O)c2)n1, COMU/DIEA, DMF, 29.3 mM, 5.0 h): 33%
Ent. B Max Activity (CFTR [2]; Table 8): +++ (+++ is >60%)
EC50 (CFTR [2]; [4]): < 1 µM

Cc1cccc(C)c1-c1cc2nc(n1)NS(=O)(=O)c1cccc(c1)C(=O)N(CCC(C)(C)C)[C@H](CC(C)(C)C)CO2 [Compound 138, (11R)-12-(3,3-Dimethylbutyl)-6-(2,6-dimethylphenyl)-11-(2,2-dimethylpropyl)-2,2-dioxo-9-oxa-2λ^6-thia-3,5,12,19-tetrazatricyclo[12.3.1.14,8]nonadeca-1(18),4(19),5,7,14,16-hexaen-13-one]
Ent. A Max Activity (CFTR [3]; Table 6): +++ (+++ is >60%)
EC50 (CFTR [3]; Table 6): < 1 µM
ring closure, yield after HPLC ([1]; from Cc1cccc(C)c1-c1cc(OC[C@@H](CC(C)(C)C)NCCC(C)(C)C)nc(NS(=O)(=O)c2cccc(C(=O)O)c2)n1, HATU/DIEA, DMF, 8.4 mM, 2.0 h): 39%

COC(=O)c1ccc(CCN2C(=O)c3cccc(c3)S(=O)(=O)Nc3nc(cc(-c4c(C)cccc4C)n3)OC[C@H]2CC(C)(C)C)cc1 [Compound 1081]
ring closure, yield after HPLC ([1]; from COC(=O)c1ccc(CCN[C@@H](COc2cc(-c3c(C)cccc3C)nc(NS(=O)(=O)c3cccc(C(=O)O)c3)n2)CC(C)(C)C)cc1, HATU/DIEA, DMF, 25.0 °C, 16.0 h, 2 steps): 23%
Ent. B Max Activity (%) (CFTR [2]; Table 9): +++ (+++ is >600%)
EC50 (CFTR [2]; Table 9): < 1 µM
